In BindingDB's records for doi:10.1016/j.ejmech.2016.05.049 (University of Naples Federico Ii, 2016):
Residues, ends and D or L forms follow the SMILES beside them. *: point of attachment. Cbz = O=C(OCc1ccccc1)*

Assay: Competitive inhibition of post-glutamyl peptide hydrolyzing activity of human 20S proteasome using Cbz-Leu-Leu-Glu-AMC as substrate measured for 10 mins by fluorescence assay

| Ki [µM] | Compound |
| --- | --- |
| 31.3 | COC(=O)[C@H](Cc1ccc(O)cc1)NC(=O)[C@H](CC(C)C)NC(=O)[C@H](CO)NC(=O)OCc1ccccc1 (Cbz-Ser-Leu-Tyr-OMe) |
| 8.59 | CC(C)CC(NC(=O)C(CO)NC(=O)OCc1ccccc1)C(=O)NC(Cc1ccc(O)cc1)C(N)=O (stereo not drawn) (Cbz-Ser-Leu-Tyr-NH2; configuration not given here) |
